In patent US7795290B2 (Genentech, Inc., priority 2004, dated 2010):

Molecular target: T1, AKT1 (Homo sapiens, UniProt P31749)
T1 construct: purchased Upstate 14-276
Experiment: HTS ATP-utilizing enzyme assay, off-chip mobility-shift (Caliper HTS 250)
Assay type: biochemical
Settings: kinase named = inhibitory activity/selectivity; test compound 10 μM; active = greater than three-sigma from mean
Text: The following procedures describe the reagent and plate preparation for a HTS of an ATP-utilizing enzyme, such as a protein kinase, run in an off-chip mobility-shift assay format. The following provides an HTS protocol for running a protein kinase HTS screen on a Caliper HTS 250 microfluidics system. The following parameters are dependent on the protein kinase used and can be determined by one skilled in the art as part of a typical assay development process. For example, the peptide substrate used can be identified from the current literature, by screening a peptide library of potential protein kinase substrates, or by other applicable means accepted in the field.
The following table provides typical screen assay parameters appropriate for a Caliper HTS 250 microfluidics system used to assay AKT1. Parameters used to assay other protein kinases can be determined by one skilled in the art.
Assays to determine the kinase inhibitory activity of chemical entities of the present disclosure were performed using a Caliper HTS 250 microfluidics device, Greiner U-bottom assay plates, a Multidrop for transfer of reagents, and Biomek FX (AMNCBM03) software. Initially, 2.4 μL of a 1 mM solution of a test compound in 100% DMSO was added to a well of the Greiner U-bottom plate. A single Greiner U-bottom plate having 24×16 wells could include multiple test compounds. […] Using the Biomek FX, 10 μL of 0.5 M EDTA was added by the span-8 to wells, indicated as 100% Control and 2.4 μL of 100% DMSO was added by the span-8 to wells, indicated as 0% Control. […] The total reaction volume in each well was 25 μL, and the concentration of the test compound was 10 μM. The assay plate was incubated for 2.5 hrs at 20° C. to 22° C. […] The inhibition of the ATP-utilizing enzyme, such as a particular protein kinase, was determined by measuring the ratio of the peptide substrate to phosphorylated product for each well of the assay plate using the Caliper HTS 250 system.
The use of three-sigma statistical limits represents a conservative method for declaring potential hits among targets. The three-sigma activity, as well as the mean population activity, can be different for each target enzyme.
Each chemical entity listed in Table 2 was tested for protein kinase inhibitory activity according to the biological assays and definitions of protein kinase inhibitory activity as described herein.

T1 sequence (P31749 whole entry): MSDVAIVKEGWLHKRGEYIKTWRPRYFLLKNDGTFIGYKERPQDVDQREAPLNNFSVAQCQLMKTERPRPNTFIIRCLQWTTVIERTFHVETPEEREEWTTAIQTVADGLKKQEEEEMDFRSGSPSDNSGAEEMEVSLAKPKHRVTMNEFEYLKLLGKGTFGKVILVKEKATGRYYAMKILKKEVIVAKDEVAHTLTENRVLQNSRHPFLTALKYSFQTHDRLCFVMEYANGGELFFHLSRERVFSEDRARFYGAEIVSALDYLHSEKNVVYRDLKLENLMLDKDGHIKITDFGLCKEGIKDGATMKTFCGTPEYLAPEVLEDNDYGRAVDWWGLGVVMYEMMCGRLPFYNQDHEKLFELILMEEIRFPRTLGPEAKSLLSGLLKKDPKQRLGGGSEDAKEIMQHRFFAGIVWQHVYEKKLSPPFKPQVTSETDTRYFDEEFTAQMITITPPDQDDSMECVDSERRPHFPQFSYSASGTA

Activity, AKT1:
O=C(c1cccs1)N(CCCN1CCCCCC1)c1nc(-c2ccccc2)cs1 [N-(3-(azepan-1-yl)propyl)-N-(4-phenylthiazol-2-yl)thiophene-2-carboxamide]
CN(CC(O)CO)C(=O)CCN(C(=O)c1cccs1)c1nc(-c2cc3ccccc3o2)cs1 (stereo not shown) [N-(4-(benzofuran-2-yl)thiazol-2-yl)-N-(3-((2,3-dihydroxypropyl)(methyl)amino)-3-oxopropyl)thiophene-2-carboxamide]
COC(=O)C1CCN(C(=O)CCCN(C(=O)c2cccs2)c2nc(-c3cc4ccccc4o3)cs2)CC1 [methyl 1-(4-(N-(4-(benzofuran-2-yl)thiazol-2-yl)thiophene-2-carboxamido)butanoyl)piperidine-4-carboxylate]
CN(C)CCNC(=O)CCN(C(=O)c1cccs1)c1nc(-c2cc3ccccc3o2)cs1 [N-(4-(benzofuran-2-yl)thiazol-2-yl)-N-(3-(2-(dimethylamino)ethylamino)-3-oxopropyl)thiophene-2-carboxamide]
Cn1cccc1C(=O)N(CCCN1CCCC1=O)c1nc(-c2cc(-c3ccccc3)no2)cs1 [1-methyl-N-(3-(2-oxopyrrolidin-1-yl)propyl)-N-(4-(3-phenylisoxazol-5-yl)thiazol-2-yl)-1H-pyrrole-2-carboxamide]
Cc1ccc(-c2csc(N(CCCN3CCOCC3)C(=O)c3cccs3)n2)s1 [N-(4-(5-methylthiophen-2-yl)thiazol-2-yl)-N-(3-morpholinopropyl)thiophene-2-carboxamide]
O=C(c1cccs1)N(CCCN1CCCCC1)c1nc(-c2cc3ccccc3o2)cs1 [N-(4-(benzofuran-2-yl)thiazol-2-yl)-N-(3-(piperidin-1-yl)propyl)thiophene-2-carboxamide]
NC(=O)C1CCCN(C(=O)CCCN(C(=O)c2cccs2)c2nc(-c3cc4ccccc4o3)cs2)C1 (stereo not shown) [1-(4-(N-(4-(benzofuran-2-yl)thiazol-2-yl)thiophene-2-carboxamido)butanoyl)piperidine-3-carboxamide]
O=C(c1cccs1)N(CCCN1CCOCC1)c1nc(-c2ccc(F)cc2)cs1 [N-(4-(4-fluorophenyl)thiazol-2-yl)-N-(3-morpholinopropyl)thiophene-2-carboxamide]
COC[C@@H]1CCCN1CCCN(C(=O)c1cccs1)c1nc(-c2cc3ccccc3o2)cs1 [(S)—N-(4-(benzofuran-2-yl)thiazol-2-yl)-N-(3-(2-(methoxymethyl)pyrrolidin-1-yl)propyl)thiophene-2-carboxamide]
O=C(Nc1nncs1)c1csc(N(CCCN2CCOCC2)C(=O)c2cccs2)n1 [2-(N-(3-morpholinopropyl)thiophene-2-carboxamido)-N-(1,3,4-thiadiazol-2-yl)thiazole-4-carboxamide]
CC(C)(C)OC(=O)N1CCN(CCCN(C(=O)c2cccs2)c2nc(-c3cc4ccccc4o3)cs2)CC1 [tert-butyl 4-(3-(N-(4-(benzofuran-2-yl)thiazol-2-yl)thiophene-2-carboxamido)propyl)piperazine-1-carboxylate]
COc1ccc(-c2csc(N(CCCN3CCOCC3)C(=O)c3cccs3)n2)c(OC)n1 [N-(4-(2,6-dimethoxypyridin-3-yl)thiazol-2-yl)-N-(3-morpholinopropyl)thiophene-2-carboxamide]
COc1ccc(-c2csc(N(CCCN3CCOCC3)C(=O)C3CCC3)n2)cc1OC [N-(4-(3,4-dimethoxyphenyl)thiazol-2-yl)-N-(3-morpholinopropyl)cyclobutanecarboxamide]
O=C(c1cccs1)N(CCCN1CCOCC1)c1nc(-c2ccc(N3CCCC3)cc2)cs1 [N-(3-morpholinopropyl)-N-(4-(4-(pyrrolidin-1-yl)phenyl)thiazol-2-yl)thiophene-2-carboxamide]
COc1ccc(-c2csc(N(CCCN3CCOCC3)C(=O)c3ccco3)n2)cc1OC [N-(4-(3,4-dimethoxyphenyl)thiazol-2-yl)-N-(3-morpholinopropyl)furan-2-carboxamide]
COc1ccc2oc(-c3csc(N(CCCN4CCOCC4)C(=O)c4cccs4)n3)cc2c1 [N-(4-(5-methoxybenzofuran-2-yl)thiazol-2-yl)-N-(3-morpholinopropyl)thiophene-2-carboxamide]
COc1ccc(-c2csc(N(CCCN3CCCCCC3)C(=O)c3ccccc3)n2)cc1 [N-(3-(azepan-1-yl)propyl)-N-(4-(4-methoxyphenyl)thiazol-2-yl)benzamide]
O=C(c1cccs1)N(CCCN1CCC(CO)CC1)c1nc(-c2cc3ccccc3o2)cs1 [N-(4-(benzofuran-2-yl)thiazol-2-yl)-N-(3-(4-(hydroxymethyl)piperidin-1-yl)propyl)thiophene-2-carboxamide]
O=C1CCCN1CCCN(C(=O)c1ccco1)c1nc(-c2cc(-c3ccccc3)no2)cs1 [N-(3-(2-oxopyrrolidin-1-yl)propyl)-N-(4-(3-phenylisoxazol-5-yl)thiazol-2-yl)furan-2-carboxamide]
CCN(CC)CCCN(C(=O)c1ccco1)c1nc(-c2cc(OC)ccc2OC)cs1 [N-(3-(diethylamino)propyl)-N-(4-(2,5-dimethoxyphenyl)thiazol-2-yl)furan-2-carboxamide]
NC(=O)c1cccc(NC(=O)c2csc(N(CCCN3CCOCC3)C(=O)c3cccs3)n2)c1 [N-(3-carbamoylphenyl)-2-(N-(3-morpholinopropyl)thiophene-2-carboxamido)thiazole-4-carboxamide]
CN(C)C(=O)CN1CCN(CCCN(C(=O)c2cccs2)c2nc(-c3cc4ccccc4o3)cs2)CC1 [N-(4-(benzofuran-2-yl)thiazol-2-yl)-N-(3-(4-(2-(dimethylamino)-2-oxoethyl)piperazin-1-yl)propyl)thiophene-2-carboxamide]
CCN(CC)C1CCN(C(=O)CCCN(C(=O)c2cccs2)c2nc(-c3cc4ccccc4o3)cs2)CC1 [N-(4-(benzofuran-2-yl)thiazol-2-yl)-N-(4-(4-(diethylamino)piperidin-1-yl)-4-oxobutyl)thiophene-2-carboxamide]
CCN(CC)CCCN(C(=O)c1cccs1)c1nc(-c2ccccc2)cs1 [N-(3-(diethylamino)propyl)-N-(4-phenylthiazol-2-yl)thiophene-2-carboxamide]
O=C(CCN(C(=O)c1cccs1)c1nc(-c2cc3ccccc3o2)cs1)NCCO [N-(4-(benzofuran-2-yl)thiazol-2-yl)-N-(3-(2-hydroxyethylamino)-3-oxopropyl)thiophene-2-carboxamide]
O=C(O)CCOc1cccc(-c2csc(N(CCCN3CCOCC3)C(=O)c3cccs3)n2)c1 [3-(3-(2-(N-(3-morpholinopropyl)thiophene-2-carboxamido)thiazol-4-yl)phenoxy)propanoic acid]
O=C(c1cccs1)N(CCCN1CCC(N2CCOCC2)CC1)c1nc(-c2cc3ccccc3o2)cs1 [N-(4-(benzofuran-2-yl)thiazol-2-yl)-N-(3-(4-morpholinopiperidin-1-yl)propyl)thiophene-2-carboxamide]
O=C(c1cccs1)N(CCCN1CCOCC1)c1nc(-c2ccc(-c3ccccn3)s2)cs1 [N-(3-morpholinopropyl)-N-(4-(5-(pyridin-2-yl)thiophen-2-yl)thiazol-2-yl)thiophene-2-carboxamide]
O=C1CCCN1CCCN(C(=O)c1cccs1)c1nc(-c2cc3ccccc3o2)cs1 [N-(4-(benzofuran-2-yl)thiazol-2-yl)-N-(3-(2-oxopyrrolidin-1-yl)propyl)thiophene-2-carboxamide]
O=C(c1cccs1)N(CCCCN1CCOCC1)c1nc(-c2cc(-c3ccccc3)no2)cs1 [N-(4-morpholinobutyl)-N-(4-(3-phenylisoxazol-5-yl)thiazol-2-yl)thiophene-2-carboxamide]
CN(C)CCCOc1cccc(-c2csc(N(CCCN3CCOCC3)C(=O)c3cccs3)n2)c1 [N-(4-(3-(3-(dimethylamino)propoxy)phenyl)thiazol-2-yl)-N-(3-morpholinopropyl)thiophene-2-carboxamide]
COC(=O)c1ccc(-c2csc(N(CCCN3CCOCC3)C(=O)c3cccs3)n2)cc1 [methyl 4-(2-(N-(3-morpholinopropyl)thiophene-2-carboxamido)thiazol-4-yl)benzoate]
CN(C)CCCOc1ccc(-c2csc(N(CCCN3CCOCC3)C(=O)c3cccs3)n2)cc1 [N-(4-(4-(3-(dimethylamino)propoxy)phenyl)thiazol-2-yl)-N-(3-morpholinopropyl)thiophene-2-carboxamide]
